Patent US5733924A, “DC 107 derivatives and treatment methods” (Kyowa Hakko Kogyo Co., Ltd., priority 1995, dated 1998)
In brackets after ≈: the same amount, converted by molar mass. Read-outs that look alike come from different tables or passages of the source.

What was measured:
[1] = tested on: Enterococcus faecium ATCC 10541; assay: Antibacterial activity, agar dilution method (MIC); format: cell-based
Source text: (§1) The antibacterial activity as determined by the agar dilution method using a medium prepared by dissolving 3 g of Bacto-Tryptone (a product of Difco Laboratories), 3 g of a meat extract, 1 g of an yeast extract, 1 g of glucose and 16 g of agar in one liter of water (pH 7).
EF: Enterococcus faecium ATCC 10541

Escherichia coli ATCC 26 = assay: Antibacterial activity, agar dilution method (MIC); format: cell-based; conditions: for MIC (minimum growth inhibitory concentration): EC: Escherichia coli ATCC 26, pH 7
Source text: as §1
EC: Escherichia coli ATCC 26

P388 Leukemia = assay: Antitumor activity against P388 leukemia in mice (increased life span); format: in vivo, CDF1 mice; conditions: Mus musculus, P388, ip, 720 h
Description: Ascites were collected from the abdominal cavity of P388 ascites tumor-bearing cancer mice (DBA/2) on the 7th day after transplantation. A number of P388 cells in the ascites was counted, and a tumor cell floating liquid of 5×10^6 cells/ml was prepared using a physiological saline solution. Then, 0.2 ml of the solution containing 1×10^6 cells was transplanted into the abdominal cavity of CDF1 mice having a body weight of from 20 to 25 g.
The effect of the test compound was determined in terms of the ratio of average survival days of the group administered with the test compound to average survival days of the control group (non-medicated group) (i.e., an increased life span, ILS%).

[2] = tested on: Bacillus subtilis No. 10707; assay: Antibacterial activity, agar dilution method (MIC); format: cell-based
Source text: as §1
BS: Bacillus subtilis No. 10707

[3] = tested on: Staphylococcus aureus ATCC 6538P; assay: Antibacterial activity, agar dilution method (MIC); format: cell-based; conditions: for MIC: ATCC6538P
Source text: as §1
SA: Staphylococcus aureus ATCC 6538P

[4] = tested on: Klebsiella pneumoniae ATCC 10031; assay: Antibacterial activity, agar dilution method (MIC); format: cell-based
Source text: as §1
KP: Klebsiella pneumoniae ATCC 10031

[5] = Enterococcus faecium, ATCC10541, pH 7, read-out: MIC (minimum growth inhibitory concentration), EF: Enterococcus faecium ATCC 10541
[6] = Escherichia coli, ATCC26, pH 7, read-out: MIC (minimum growth inhibitory concentration), EC: Escherichia coli ATCC 26
[7] = read-out: ILS (increased life span)
[8] = Bacillus subtilis, NO.10707, pH 7, read-out: MIC (minimum growth inhibitory concentration), BS: Bacillus subtilis No. 10707
[9] = Staphylococcus aureus, pH 7, read-out: MIC (minimum growth inhibitory concentration)
[10] = Klebsiella pneumoniae, ATCC10031, pH 7, read-out: MIC (minimum growth inhibitory concentration)
[11] = ATCC10541, EF: Enterococcus faecium ATCC 10541, pH 7, read-out: MIC (minimum growth inhibitory concentration)
[12] = ATCC26, EC: Escherichia coli ATCC 26, pH 7, read-out: MIC (minimum growth inhibitory concentration)
[13] = single i.p. 24 hours after transplantation, CDF1 mice, 30 days observation
[14] = BS: Bacillus subtilis No. 10707, pH 7, read-out: MIC (minimum growth inhibitory concentration)
[15] = SA: Staphylococcus aureus ATCC 6538P, agar dilution, pH 7, read-out: MIC (minimum growth inhibitory concentration)
[16] = ATCC10031, KP: Klebsiella pneumoniae ATCC 10031, agar dilution, pH 7, read-out: MIC (minimum growth inhibitory concentration)
[17] = single i.p. 24 hours after transplantation, CDF1 mice, 30 days observation, read-out: ILS (increased life span)
[18] = 2.0 mg/kg, single i.p. 24 hours after transplantation, CDF1 mice, 30 days observation, read-out: ILS (increased life span)

SMILES | MIC [1, 11] [µg/mL] | MIC (Escherichia coli ATCC 26; [12]) [µg/mL] | MIC [2, 14] [µg/mL] | MIC [3, 15] [µg/mL] | MIC [4, 16] [µg/mL] | also measured
CC1=CC(OC(=O)c2ccccn2)C(=O)C=CC=Cc2csc(n2)C(C)N2C(=O)CC(C(C)(O)C(=O)SCc3oc(=O)oc3C)(CC1)[S+]2[O-] (stereo not drawn) [Compound 143] |  |  |  |  |  | MIC [1, 5]: 0.33 µg/mL (≈ 0.453 µM); MIC (Escherichia coli ATCC 26; [6]): 5.2 µg/mL (≈ 7.14 µM); ILS at 0.5 mg/kg (P388 Leukemia; [7]): 49%; MIC [2, 8]: 0.16 µg/mL (≈ 0.22 µM); MIC [3, 9]: 0.16 µg/mL (≈ 0.22 µM); MIC [4, 10]: 0.65 µg/mL (≈ 0.893 µM)
C/C1=C\C(OC(=O)CN(C)C(=O)CCNC(=O)OCc2ccccc2)C(=O)/C=C/C=C\c2csc(n2)C(C)NC(=O)CC2(CC1)[S+]([O-])SC(=O)C2(C)O (stereo not drawn) [Compound 117] | 0.23 (≈ 0.292 µM) | 0.46 (≈ 0.585 µM) | 0.13 (≈ 0.165 µM) | 0.13 (≈ 0.165 µM) | 0.057 (≈ 0.0724 µM) | ILS at 16 mg/kg (P388 Leukemia; [13]): 73%
CC1=CC(OC(=O)CNC(=O)CCNC(=O)OC(C)(C)C)C(=O)C=CC=Cc2csc(n2)C(C)N2C(=O)CC(C(C)(O)C(=O)SCc3oc(=O)oc3C)(CC1)[S+]2[O-] (stereo not drawn) [Compound 170] | 2.3 (≈ 2.7 µM) | 75 (≈ 88.1 µM) | 2.3 (≈ 2.7 µM) | 2.3 (≈ 2.7 µM) | 2.3 (≈ 2.7 µM) | ILS at 8 mg/kg (P388 Leukemia; [17]): 70%
C/C1=C\C(OC(=O)CNC=O)C(=O)/C=C/C=C\c2csc(n2)C(C)NC(=O)CC2(CC1)[S+]([O-])SC(=O)C2(C)O (stereo not drawn) [Compound 99] | 0.041 (≈ 0.0688 µM) | 2.6 (≈ 4.36 µM) | 0.041 (≈ 0.0688 µM) | 0.041 (≈ 0.0688 µM) | 0.041 (≈ 0.0688 µM) | ILS at 8 mg/kg (P388 Leukemia; [17]): 56%
C/C1=C\C(OC(=O)CNC(=O)CNC(=O)c2ccccc2)C(=O)/C=C/C=C\c2csc(n2)C(C)NC(=O)CC2(CC1)[S+]([O-])SC(=O)C2(C)O (stereo not drawn) [Compound 109] | 0.081 (≈ 0.111 µM) | 3.2 (≈ 4.39 µM) | 0.35 (≈ 0.48 µM) | 0.081 (≈ 0.111 µM) | 0.041 (≈ 0.0563 µM) | ILS at 8 mg/kg (P388 Leukemia; [17]): 78%
CCOCOC1/C=C(\C)CCC2(C(C)(O)C(=O)SCc3oc(=O)oc3C)CC(=O)N(C(C)c3nc(cs3)/C=C\C=C\C1=O)[S+]2[O-] (stereo not drawn) [Compound 59] | 1.3 (≈ 1.91 µM) | 21 (≈ 30.8 µM) | 0.65 (≈ 0.955 µM) | 1.3 (≈ 1.91 µM) | 5.2 (≈ 7.64 µM) | ILS at 2 mg/kg (P388 Leukemia; [18]): 47%
C/C1=C\C(OC(=O)CCCNC(=O)OCc2ccccc2)C(=O)/C=C/C=C\c2csc(n2)C(C)NC(=O)CC2(CC1)[S+]([O-])SC(=O)C2(C)O (stereo not drawn) [Compound 106] | 0.16 (≈ 0.219 µM) | 10 (≈ 13.7 µM) | 0.041 (≈ 0.0562 µM) | 0.16 (≈ 0.219 µM) | 1.3 (≈ 1.78 µM) | ILS at 16 mg/kg (P388 Leukemia; [13]): 62%
C/C1=C\C(OC(=O)CNC(=O)CN(C)C(=O)OCc2ccccc2)C(=O)/C=C/C=C\c2csc(n2)C(C)NC(=O)CC2(CC1)[S+]([O-])SC(=O)C2(C)O (stereo not drawn) [Compound 114] | 0.037 (≈ 0.0479 µM) | 11 (≈ 14.2 µM) | 0.037 (≈ 0.0479 µM) | 0.037 (≈ 0.0479 µM) | 1.2 (≈ 1.55 µM) | ILS at 4 mg/kg (P388 Leukemia; [17]): 70%
C/C1=C\C(OC2CCCCO2)C(=O)/C=C/C=C\c2csc(n2)C(C)N2C(=O)CC(C(C)(O)C(=O)SCc3oc(=O)oc3C)(CC1)[S+]2[O-] (single isomer, unassigned) [Compound 63] |  |  |  |  |  | MIC [1, 5]: 0.65 µg/mL (≈ 0.92 µM); MIC (minimum growth inhibitory concentration) (Escherichia coli ATCC 26): 21 µg/mL (≈ 29.7 µM); ILS at 2 mg/kg (P388 Leukemia; [7]): 48%; MIC [2, 8]: 0.081 µg/mL (≈ 0.115 µM); MIC [3, 9]: 0.65 µg/mL (≈ 0.92 µM); MIC [4, 10]: 5.2 µg/mL (≈ 7.36 µM)
C/C1=C\C(OC(=O)CNC(=O)CCNC(=O)OCc2ccccc2)C(=O)/C=C/C=C\c2csc(n2)C(C)NC(=O)CC2(CC1)[S+]([O-])SC(=O)C2(C)O (stereo not drawn) [Compound 111] | 0.16 (≈ 0.207 µM) | 2.6 (≈ 3.36 µM) | 0.081 (≈ 0.105 µM) | 0.33 (≈ 0.427 µM) | 0.041 (≈ 0.053 µM) | ILS at 16 mg/kg (P388 Leukemia; [13]): 76%
COCOC1/C=C(\C)CCC2(C(C)(O)C(=O)SCc3oc(=O)oc3C)CC(=O)N(C(C)c3nc(cs3)/C=C\C=C\C1=O)[S+]2[O-] (stereo not drawn) [Compound 58] | 0.72 (≈ 1.08 µM) | 46 (≈ 69 µM) | 0.72 (≈ 1.08 µM) | 0.72 (≈ 1.08 µM) | 2.9 (≈ 4.35 µM) | 
COC1(OC2C=C(C)CCC3(C(C)(O)C(=O)SCc4oc(=O)oc4C)CC(=O)N(C(C)c4nc(cs4)C=CC=CC2=O)[S+]3[O-])CCOCC1 (stereo not drawn) [Compound 122] | 1.3 (≈ 1.76 µM) | 42 (≈ 57 µM) | 0.16 (≈ 0.217 µM) | 0.65 (≈ 0.882 µM) | 2.6 (≈ 3.53 µM) | ILS at 2 mg/kg (P388 Leukemia; [18]): 52%
C/C1=C\C(OC(=O)c2cnc3ccccc3n2)C(=O)/C=C/C=C\c2csc(n2)C(C)N2C(=O)CC(C(C)(O)C(=O)SCc3oc(=O)oc3C)(CC1)[S+]2[O-] (stereo not drawn) [Compound 52] |  |  |  |  |  | MIC [1, 5]: 0.72 µg/mL (≈ 0.924 µM); MIC (Escherichia coli ATCC 26; [6]): 92 µg/mL (≈ 118 µM); MIC [2, 8]: 2.9 µg/mL (≈ 3.72 µM); MIC [3, 9]: 0.72 µg/mL (≈ 0.924 µM); MIC [4, 10]: 23 µg/mL (≈ 29.5 µM)
C/C1=C\C(OC(=O)c2ccc(F)cc2)C(=O)/C=C/C=C\c2csc(n2)C(C)NC(=O)CC2(CC1)[S+]([O-])SC(=O)C2(C)O (stereo not drawn) [Compound 8] | 0.081 (≈ 0.128 µM) | 1.3 (≈ 2.05 µM) | 0.02 (≈ 0.0316 µM) | 0.081 (≈ 0.128 µM) | 1.3 (≈ 2.05 µM) | 
C/C1=C\C(OC2CCCCO2)C(=O)/C=C/C=C\c2csc(n2)C(C)N2C(=O)CC(C(C)(O)C(=O)SCc3oc(=O)oc3C)(CC1)[S+]2[O-] (single isomer, unassigned) [Compound 64] |  |  |  |  |  | MIC (minimum growth inhibitory concentration) ([1]; EF: Enterococcus faecium ATCC 10541, pH 7): 1.3 µg/mL (≈ 1.84 µM); MIC (minimum growth inhibitory concentration) (Escherichia coli ATCC 26): 5.2 µg/mL (≈ 7.36 µM); MIC (minimum growth inhibitory concentration) ([2]; BS: Bacillus subtilis No. 10707, pH 7): 0.16 µg/mL (≈ 0.226 µM); MIC (minimum growth inhibitory concentration) ([3]; SA: Staphylococcus aureus ATCC 6538P, agar dilution, pH 7): 0.65 µg/mL (≈ 0.92 µM); MIC (minimum growth inhibitory concentration) ([4]; KP: Klebsiella pneumoniae ATCC 10031, agar dilution, pH 7): 5.2 µg/mL (≈ 7.36 µM)
C/C1=C\C(OC(=O)CNC(=O)CNC(=O)OCc2ccccc2)C(=O)/C=C/C=C\c2csc(n2)C(C)NC(=O)CC2(CC1)[S+]([O-])SC(=O)C2(C)O (stereo not drawn) [Compound 108] | 0.081 (≈ 0.107 µM) | 21 (≈ 27.7 µM) | 0.041 (≈ 0.054 µM) | 0.16 (≈ 0.211 µM) | 0.33 (≈ 0.435 µM) | ILS at 4 mg/kg (P388 Leukemia; [17]): 72%
CC(=O)OC1(C)C(=O)S[S+]([O-])C12CC/C(C)=C/C(O)C(=O)/C=C/C=C\c1csc(n1)C(C)NC(=O)C2 (stereo not drawn) [Compound 25] | 2.6 (≈ 4.7 µM) | 42 (≈ 76 µM) | 10 (≈ 18.1 µM) | 1.3 (≈ 2.35 µM) | 10 (≈ 18.1 µM) | 
C/C1=C\C(OC(=O)CNC(=O)[C@H](CO)NC(=O)OCc2ccccc2)C(=O)/C=C/C=C\c2csc(n2)C(C)NC(=O)CC2(CC1)[S+]([O-])SC(=O)C2(C)O (stereo partly drawn) [Compound 116] | 0.033 (≈ 0.0418 µM) | 4.2 (≈ 5.32 µM) | 0.033 (≈ 0.0418 µM) | 0.033 (≈ 0.0418 µM) | 0.033 (≈ 0.0418 µM) | 
